Literature values as cited in patent US20230321462A1, “Method for Improving Olfactory Sensitivity” (Kao Corporation, priority 2019, published 2023).

Legend:
Conditions in all cases: Table 3; cited from earlier work
OR7G2 = target: T1, OR7G2 (Homo sapiens, UniProt Q8NG99)
T1 sequence (Q8NG99 1-324): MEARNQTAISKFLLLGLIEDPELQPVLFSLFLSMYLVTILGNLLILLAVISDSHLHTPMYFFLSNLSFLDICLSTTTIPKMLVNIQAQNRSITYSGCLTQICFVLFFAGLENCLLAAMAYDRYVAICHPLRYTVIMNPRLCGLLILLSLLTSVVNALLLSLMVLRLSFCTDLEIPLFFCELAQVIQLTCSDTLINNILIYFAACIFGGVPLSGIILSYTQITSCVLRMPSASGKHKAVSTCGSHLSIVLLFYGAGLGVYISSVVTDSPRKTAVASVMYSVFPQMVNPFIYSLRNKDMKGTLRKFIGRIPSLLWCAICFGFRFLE

OR51D1 = target: T2, OR51D1 (Homo sapiens, UniProt Q8NGF3)
T2 sequence (Q8NGF3 1-324): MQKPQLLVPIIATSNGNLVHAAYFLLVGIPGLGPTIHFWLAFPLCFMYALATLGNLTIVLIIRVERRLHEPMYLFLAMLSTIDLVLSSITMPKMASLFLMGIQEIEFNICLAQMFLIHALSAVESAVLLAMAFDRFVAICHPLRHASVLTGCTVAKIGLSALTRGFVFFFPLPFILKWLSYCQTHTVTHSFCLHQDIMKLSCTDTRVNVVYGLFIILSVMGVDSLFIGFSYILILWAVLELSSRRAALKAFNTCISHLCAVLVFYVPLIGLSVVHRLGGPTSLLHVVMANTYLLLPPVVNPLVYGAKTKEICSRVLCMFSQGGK

OR2T1 = target: T3, OR2T1 (Homo sapiens, UniProt O43869)
T3 sequence (O43869 1-369): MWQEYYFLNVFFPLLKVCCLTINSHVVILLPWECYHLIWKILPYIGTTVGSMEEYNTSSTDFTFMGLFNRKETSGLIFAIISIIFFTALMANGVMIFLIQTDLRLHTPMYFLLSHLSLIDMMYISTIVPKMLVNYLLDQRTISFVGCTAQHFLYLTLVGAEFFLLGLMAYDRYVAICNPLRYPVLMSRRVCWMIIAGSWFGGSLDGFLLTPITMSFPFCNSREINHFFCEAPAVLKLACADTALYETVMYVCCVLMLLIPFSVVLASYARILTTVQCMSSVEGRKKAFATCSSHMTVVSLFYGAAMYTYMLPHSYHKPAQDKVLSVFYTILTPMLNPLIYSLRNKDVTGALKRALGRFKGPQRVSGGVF

OR5Al1 = target: T4, OR5Al1 (Homo sapiens, UniProt P0C617)
T4 sequence (P0C617 1-329): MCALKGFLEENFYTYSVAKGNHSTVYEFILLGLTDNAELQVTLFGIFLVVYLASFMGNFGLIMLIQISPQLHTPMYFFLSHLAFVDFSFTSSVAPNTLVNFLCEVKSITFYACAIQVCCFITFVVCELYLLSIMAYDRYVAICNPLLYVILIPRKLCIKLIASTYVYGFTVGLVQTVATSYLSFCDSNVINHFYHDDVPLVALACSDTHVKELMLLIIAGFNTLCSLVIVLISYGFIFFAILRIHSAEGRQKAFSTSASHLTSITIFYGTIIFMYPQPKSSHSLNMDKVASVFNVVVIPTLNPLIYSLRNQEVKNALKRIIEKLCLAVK

CCCC(=O)O [Butyric acid]
recognized by: recognition by OR7G2 (OR7G2) | recognition by OR51D1 (OR51D1) | recognition by OR2T1 (OR2T1) | recognition by OR5Al1 (OR5Al1)
